Here are results for one compound from publication PMC6831561, “Pharmacological and Behavioral Effects of the Synthetic Cannabinoid AKB48 in Rats” (Frontiers in Neuroscience, 2019).

Like-named read-outs stand apart in the source and are kept apart here.

The subject of data set [1] is extracellular DA levels. Nature of the data set: In vivo brain microdialysis of DA (NAc shell, NAc core, mPFC). Also on record: species or system rats. The text has this: Male Sprague-Dawley rats were anaesthetized with isoflurane gas, and maintained under anaesthesia using a breathing tube under a scavenging system while placed in a stereotaxic apparatus and implanted with vertical dialysis probes (1.5 or 3 mm dialyzing portion for NAc or mPFC, respectively) in the NAc shell (A + 2.2, L + 1.0 from bregma, V-7.8 from dura) or core (A + 1.4; L + 1.6 from bregma; V-7.6 from dura) or in the mPFC (A + 3.7, L + 0.8 from bregma, V-5.0 from dura), according to the rat brain atlas ([Paxinos and Watson, 1998]).
On the day following surgery, probes were perfused with Ringer’s solution (147 mM NaCl, 4 mM KCl, 2.2 mM CaCl2) at a constant rate of 1 μL/min. Dialyzate samples (10 μL) were injected into an HPLC equipped with a reverse-phase column (C8 3.5 μm, Waters, United States) and a coulometric detector (ESA, Coulochem II) to quantify DA. The first electrode of the detector was set at + 130 mV (oxidation), and the second at −175 mV (reduction). The composition of the mobile phase was: 50 mM NaH2PO4, 0.1 mM Na2-EDTA, 0.5 mM n-octyl sodium sulfate, 15% (v/v) methanol, pH 5.5. The sensitivity of the assay for DA was 5 fmol/sample. At the end of the experiment, animals were sacrificed and their brains removed and stored in formalin (8%) for histological examination to verify the correct placement of the microdialysis probe.

Data set [2] in a line: AKB48 plasma pharmacokinetics (LC-MS/MS). It is filed as in vivo, rats. As to conditions: for Tmax: male, Sprague-Dawley, rat, plasma, ip, read-out: time to peak plasma concentration (converted). Here is the method:
To correlate the pharmacological effects of AKB48 with its blood levels, we measured somatosensory responses (visual, acoustic, and tactile), body temperature, and mechanical analgesia in rats at timed intervals post-AKB48 injection (for behavioral tests, see before), while simultaneously obtaining serial blood specimens for analysis of AKB48.
Sixteen male Sprague-Dawley rats were used in the study. Rats were anaesthetized with Equitesin [3 mL/kg intraperitoneal (ip); chloral hydrate 2.1 g, sodium pentobarbital 0.46 g, MgSO 1.06 g, propylene glycol 21.4 mL, ethanol (90%) 5.7 mL, H2O 3 mL] and implanted in the right jugular vein with a catheter, consisting of medical-grade tubing (Silastic, Dow Corning Corporation, MI, United States) according to the technique previously described ([Lecca et al., 2006]). A stable fixation in the mid-scapular region of the back was embedded by a polypropylene mesh (Evolution, BULEV, weight 48 g/mq, Dipromed, Italy). During the recovery period, at least 7 days after surgery, the catheters were flushed daily with 0.1 mL of gentamicin (40 mg/mL) and with heparinized saline (heparin 250 U/mL in 0.9% sterile saline). Fifteen days after recovery from surgery, rats were trained in handling, behavioral tests, and withdrawing blood from the catheter. Four groups of rats (n = 4) randomly received intraperitoneal injection of a single dose of AKB48 (0.1, 0.3, 0.5, or 3.0 mg/kg), and behavioral tests were conducted as previously reported in safety pharmacology studies (see before). Blood specimens (300 μL) were withdrawn via catheters immediately before the behavioral measurements (T = 0) and at 20, 40, 70, 140, and 195 min after drug injection. Blood specimens were collected into 1–mL vials containing sodium fluoride (4 mg/mL of blood) as preservative and anticoagulant. After each blood withdrawal, an equal volume of saline solution was infused via the intravenous catheter to maintain volume and osmotic homeostasis.
A dispersive liquid-liquid microextraction (DLLME) was performed for sample purification. Three hundred microliter of blood samples were spiked with 10 μL of JWH-209 D9 as an internal standard, achieving the final concentration of 20 ng/mL, and deproteinized with 500 μL of methanol. The sample was centrifuged at 10,000 rpm for 10 min, and 500 μL surnatant was transferred into a 15 mL conical tube containing 1 mL of water, 0.2 g of NaCl, and 100 μL of carbonate buffer, pH 9. In order to obtain the formation of the cloudy solution, 350 μL of a mixture, chloroform/methanol 1:2.5, respectively the extractant and the disperser solvent, was rapidly added to obtain the formation of a turbid mixture. […]

Data set [3] has as its system rats. Nature of the data set: Open field test and gross behavior test. It is filed as in vivo. Here is the method: An open field, used to measure locomotor activity, consisted of a wooden chamber (45 cm high) with a circular base (75 cm diameter). The floor was divided into 12 sections of similar area by two concentric circles and radial segments. The apparatus was placed in a sound-proof room, illuminated by a white 80 W lamp placed 200 cm over the center of the arena. Rat behavior in the test sessions was videotaped, analyzed, and scored. The following parameters were measured: time spent in the central or peripheral area, locomotor activity, and number of rearing reactions. Each of the behavioral parameters was scored manually by a tally counting method. The behavioral parameters scored were head twitches, wet dog shakes, grooming, licking, number of defecations, and tail rigidity. In the open field test, 21 male Sprague-Dawley rats were used and divided into three groups (n = 7 per group) and received different doses of AKB48 according to the CPP protocol. After treatment, the animals were leaved undisturbed for 10 min in the arena and then observed for 30 min.

Setting [4] is: AKB48 0.1 and 0.5 mg/kg i.p., both doses.

Turning to `CCCCCn1nc(C(=O)NC23CC4CC(CC(C4)C2)C3)c2ccccc21` [AKB48, N-(1-adamantyl)-1-pentyl-1H-indazole-3-carboxamide], the “DA levels in the NAc shell” value in data set [1] (AKB48 0.25 mg/kg i.p.) is “increased”. Besides, the “max increase of DA in the NAc shell” value in data set [1] (AKB48 0.25 mg/kg ip, at 20 and 40 min) is on record as “about 40%”. Also, the “DA levels in the mPFC” value in data set [1] (AKB48 0.125 and 0.25 mg/kg i.p.) is recorded as “No significant effects”. In data set [1] (AKB48 lower or higher doses (0.125 and 0.5 mg/kg i.p.)), the “DA levels in the NAc shell” value is “ineffective”. For the same compound, in data set [2] (0.1–3.0 mg/kg i.p.), the “plasma concentration versus dose” value is reported as “rising linearly”. Besides, in data set [2] (for the following 120 min), the “plasmatic concentrations after the peak” value is “remained quite stable”. Also, in data set [2] (higher doses (0.5 and 3.0 mg/kg i.p.)), the Tmax is 60 min. In data set [2] (low doses (0.1 and 0.3 mg/kg i.p.)), the Tmax was 30 min. In addition, in data set [3] (AKB48 0.5 mg/kg), the “distance traveled in the central area” value is given as “reduced”, the “time spent in the central area” value is listed as “reduced” and the total distance traveled result is reported as “reduced”. Further, in data set [3] (AKB48 0.1 and 0.5 mg/kg i.p.), the amount of defecation result is “did not affect”, the grooming entry is listed as “did not affect”, the head shaking entry is reported as “did not affect” and the rearing result was “no effect”. For the same compound, in data set [3] (AKB48 0.1 and 0.5 mg/kg i.p.), the spontaneous locomotor activity entry is “reduced” and the wet dog shaking result is “did not affect”. Besides, in data set [3] (setting [4]), the licking result was “decrease” and the tail rigidity entry is “significant increase”.
